# Laboratory results taken from patent publication US7432089B2, “DNA encoding favin-adenine-dinucleotide-dependent-D-erythronate-4-phosphate-de-hydrogenase, pdxR, and microbial production of vitamin B6” (DSM IP Assets B.V., priority 2002, dated 2008).
# How the values were obtained:
# S. meliloti 16C18 = test: Growth of vitamin B6-deficient mutant on supplemented EMM plate; assay type: cell-based, Sinorhizobium meliloti
# Protocol: These colonies were streaked on LBMC plates containing same antibiotics and incubated for 2 days at 30° C. The cells grown on the plates were inoculated on vitamin B6 assay plates (Table 1) containing Saccharomyces carlsbergensis ATCC 9080 as a vitamin B6 indicator strain. After incubation for 2 days at 30° C., one colony that had no halo of Saccharomyces carlsbergensis ATCC 9080 was obtained. The strain was named as S. meliloti 16C18. […] Further, S. meliloti 16C18 grew on EMM plate which was supplemented with 4 mg/L of 4-HT or 400 μg/L of PN.
# PdxR = test: Substrate specificity of PdxR (DCIP reduction, A600); assay type: biochemical, S. meliloti
# Protocol: Substrate specificity of PdxR was examined using the finally purified enzyme solution prepared in Example 2[C] (1). The standard enzyme assay was performed as follows: the basal reaction mixture (total volume 150 μl) consisting of 33 mM potassium phosphate buffer (pH 7.0), 2.4 μg proteins, 0.091 mM DCIP, and water up to a total volume of 144 μl, and was incubated for 1 minute at room temperature (21° C.). […]. The decrease in A600 was monitored at 21° C. for 1 minute for EN4P dehydrogenase read with a UV-VIS recording spectrophotometer UV 2200. One unit of the enzyme activity was defined as the amount of enzyme reduced 1 nmol of DCIP for 1 minute under the action of EN4P dehydrogenase in the assay system described above.
# [1] = system: EN4P dehydrogenase in CFE of S. meliloti 16C18 or S. meliloti 16C18/pVK-pdxR; test: EN4P dehydrogenase activity with NAD+ or NADP+ in CFE (increase of A340); assay type: biochemical; conditions: 1 mM coenzyme, 2.3 mM EN4P, any CFE, 21° C., 1 min
# Protocol: (§1) EN4P dehydrogenase activity with NAD^+ or NADP^+ in CFE was determined by the formation of NADH or NADPH, which absorbs at 340 nm. Reaction mixture (150 μl) for assaying EN4P dehydrogenase activity contained 33 mM potassium phosphate buffer, pH 7.0, 2.3 mM EN4P, 1 mM NAD^+ or NADP^+, and CFE prepared from cells of S. meliloti 16C18 or S. meliloti 16C18/pVK-pdxR (each 0.16 mg protein). The increase of A340 was monitored at room temperature (21° C.) for 1 min in a UV-VIS recording spectrophotometer UV 2200 (Shimadzu Instruments, Inc., Kyoto, Japan), but the increase of A340 was not observed in enzyme reaction mixtures with any CFEs. Therefore, the both CFEs were determined to have no NAD^+ or NADP^+ dependent EN4P dehydrogenase activity. EN4P dehydrogenase activity with an electron acceptor in CFE was examined at room temperature (21° C.) by color change due to formation of reduced form from oxidized form of an electron acceptor. Reaction mixture (150 μl) contained 33 mM potassium phosphate buffer, pH 7.0, 2.3 mM EN4P, CFE (0.16 mg protein), and an electron acceptor such as 2,6-dichlorophenolindophenol (0.091 mM) (Wako Pure chemical Industries, Ltd., Osaka, Japan) (referred to as DCIP hereinafter) or ferricyanide (1.3 mM) (Wako Pure chemical Industries, Ltd., Osaka, Japan). […]
# EN4P dehydrogenase = test: Cytochrome c as electron acceptor of EN4P dehydrogenase (absorption spectra 400-600 nm); assay type: biochemical, S. meliloti; conditions: 80 μM oxidized cytochrome c, 2.3 mM EN4P, CFE, 21° C., 2-20 min
# Chain of EN4P dehydrogenase (as listed by the source): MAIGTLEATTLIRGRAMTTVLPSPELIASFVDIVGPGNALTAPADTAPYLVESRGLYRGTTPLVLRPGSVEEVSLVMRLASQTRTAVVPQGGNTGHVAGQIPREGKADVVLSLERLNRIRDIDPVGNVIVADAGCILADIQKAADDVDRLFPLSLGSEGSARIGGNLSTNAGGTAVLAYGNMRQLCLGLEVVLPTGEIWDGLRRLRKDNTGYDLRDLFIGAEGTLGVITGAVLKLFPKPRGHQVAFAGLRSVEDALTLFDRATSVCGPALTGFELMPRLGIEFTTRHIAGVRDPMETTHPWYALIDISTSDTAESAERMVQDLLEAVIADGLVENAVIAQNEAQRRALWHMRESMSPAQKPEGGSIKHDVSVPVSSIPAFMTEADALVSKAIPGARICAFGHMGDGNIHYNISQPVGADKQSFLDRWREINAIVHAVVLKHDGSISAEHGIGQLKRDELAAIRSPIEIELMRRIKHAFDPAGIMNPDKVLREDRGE
# Protocol: Furthermore, possibility of cytochrome c instead of DCIP or ferricyanide in above-mentioned enzyme reaction system of EN4P dehydrogenase with an electron acceptor was examined by measuring change of absorption spectra in 400-600 nm spectral regions due to formation of reduced form from oxidized form of cytochrome c at room temperature (21° C.). Reaction mixture (150 μl) contained 33 mM potassium phosphate buffer, pH 7.0, 2.3 mM EN4P, 80 μM oxidized form of cytochrome c (from equine heart, Sigma Chemical Co.) as an electron acceptor, and CPE (0.16 mg protein). Absorption spectra of the reaction mixture of zero time and after 2, 5, 10, 15 and 20 min at room temperature (21° C.) were monitored with a UV-VIS recording spectrophotometer UV 2200. The absorption spectrum of zero time had only a broad peak at 525 nm, but spectra after 2 min appeared a new peak at 550 nm corresponding to reduced form of cytochrome c, and the absorption in the 550 nm region after 5, 10, 15 and 20 min was increased with time course.
# [2] = system: purified PdxR treated with ammonium sulfate; test: Effect of flavin on discoloration of DCIP in reaction mixture; assay type: biochemical, S. meliloti
# Protocol: To characterize a flavin binding to PdxR protein, ammonium sulfate fractionation was applied in the finally purified enzyme solution prepared in Example 2[C] (1) according to a method of Cammack [Biochem. J. 109:45-46 (1968)]. The enzyme solution (1 ml, containing 4.74 mg proteins) was dialyzed overnight against 1 liter of 80% (w/v) ammonium sulfate solution and its resultant precipitate in a dialysis membrane was collected by centrifugation at 34,800×g for 30 min, dissolved in 0.5 ml of 10 mM Tris-HCl, pH 7.5, and dialyzed overnight against 4 liters of the same buffer. The volume of dialyzed enzyme solution was brought to 1 ml with 10 mM Tris-HCl, pH 7.5.
# The degree of discoloration was judged at 3 minutes.
# CFE of S. meliloti 16C18 = test: EN4P dehydrogenase activity with an electron acceptor in cell-free extract (color change); assay type: biochemical; conditions: 21° C.
# Protocol: (§2) The frozen cells were thawed slowly, suspended with 200 ml of 10 mM Tris-HCl buffer, pH 7.5. The suspension was passed through a French pressure cell at 800 kg/cm^2. The homogenate was centrifuged to remove the cell debris at 37,000×g for 90 minutes and then each 165 ml of supernatants was used as cell-free extract (CFE) and the protein contents in S. meliloti 16C18 and S. meliloti 16C18/pVK-pdxR were 5,030 and 5,042 mg, respectively.
# as §1
# [3] = system: pdxR gene product in CFE of S. meliloti 16C18/pVK-pdxR; test: as above; assay type: biochemical; conditions: 21° C.
# Protocol: as §2, §1
# [4] = substrate 2.28 mM, 0.091 mM DCIP, pH 7.0, 21° C.
compound,measurement,setting,value
"Cc1ncc(CO)c(CO)c1O [PN, pyridoxol]",Growth of S. meliloti 16C18 on supplemented EMM plate,S. meliloti 16C18; EMM plate supplemented with 400 μg/L of PN,grew
C[C@H](O)C(=O)O [L-(+)-lactic acid],Activity (nmol/min/mg protein),PdxR; [4],0 nmol/min/mg protein
"O=C(O)CC(C(=O)O)C(O)C(=O)O [D,L-isocitrate]",Activity (nmol/min/mg protein),PdxR; [4],0 nmol/min/mg protein
NC(=O)c1ccc[n+]([C@@H]2O[C@H](COP(=O)([O-])OP(=O)(O)OC[C@H]3O[C@@H](n4cnc5c(N)ncnc54)[C@H](O)[C@@H]3O)[C@@H](O)[C@H]2O)c1 [NAD^+],Increase of A340 (formation of NADH or NADPH),[1],not observed
"O=C(O)[C@H](O)[C@H](O)COP(=O)(O)O [EN4P, D-erythronate 4-phosphate]",Oxidation by PdxR,"PdxR; substrate 2.28 mM, 0.091 mM DCIP",oxidized
same,Activity (nmol/min/mg protein),PdxR; [4],946 nmol/min/mg protein
O=C(O)[C@H](O)COP(=O)(O)O [D-(−)-glyceric acid 3-phosphate],Activity (nmol/min/mg protein),PdxR; [4],0 nmol/min/mg protein
O=C(O)C[C@H](O)C(=O)O [L-malic acid],Activity (nmol/min/mg protein),PdxR; [4],0 nmol/min/mg protein
O=C(O)[C@H](O)[C@H](O)CO [D-erythronate],Activity (nmol/min/mg protein),PdxR; pH 7,0 nmol/min/mg protein
O=C(O)CO [glycolate],Activity (nmol/min/mg protein),PdxR; [4],0 nmol/min/mg protein
cytochrome c,Function as electron acceptor (reduced form peak at 550 nm),EN4P dehydrogenase,works as electron acceptor
O=C(O)COP(=O)(O)O [glycolic acid 2-phosphate],Activity (nmol/min/mg protein),PdxR; [4],0 nmol/min/mg protein
"Cc1cc2nc3c(=O)[nH]c(=O)nc-3n(C[C@H](O)[C@H](O)[C@H](O)COP(=O)(O)O)c2cc1C [FMN, flavin mononucleotide]",Discoloration of DCIP,[2]; any FMN concentrations,did not occur
"O=C1C=CC(=Nc2cc(Cl)c(O)c(Cl)c2)C=C1 [DCIP, 2,6-dichlorophenolindophenol]",Color change of electron acceptor in reaction mixture,"CFE of S. meliloti 16C18; CFE of S. meliloti 16C18, + EN4P (2.3 mM)",No change
same,Color change of electron acceptor in reaction mixture,"CFE of S. meliloti 16C18; CFE of S. meliloti 16C18, − EN4P",No change
same,Color change of electron acceptor in reaction mixture,[3],No change
"N[C@H](C(=O)O)[C@H](O)CO [4-HT, 4-hydroxy-L-threonine]",Growth of S. meliloti 16C18 on supplemented EMM plate,S. meliloti 16C18; EMM plate supplemented with 4 mg/L of 4-HT,grew
"CC(O)C(=O)O (racemic) [D,L-lactate]",Activity (nmol/min/mg protein),PdxR; pH 7,0 nmol/min/mg protein
"Cc1cc2nc3c(=O)[nH]c(=O)nc-3n(C[C@H](O)[C@H](O)[C@H](O)COP(=O)(O)OP(=O)(O)OC[C@H]3O[C@@H](n4cnc5c(N)ncnc54)[C@H](O)[C@@H]3O)c2cc1C [FAD, flavin adenine dinucleotide]",Flavin concentration at which discoloration of DCIP occurred,"[2]; judged at 3 minutes, 21° C.",greater than 0.014 μM
O=C(O)[C@H](O)CO [D(+) glyceric acid],Activity (nmol/min/mg protein),PdxR; [4],0 nmol/min/mg protein
O=CC(=O)O [glyoxylate],Activity (nmol/min/mg protein),PdxR; [4],0 nmol/min/mg protein
NC(=O)c1ccc[n+]([C@@H]2O[C@H](COP(=O)([O-])OP(=O)(O)OC[C@H]3O[C@@H](n4cnc5c(N)ncnc54)[C@H](OP(=O)(O)O)[C@@H]3O)[C@@H](O)[C@H]2O)c1 [NADP^+],Increase of A340 (formation of NADH or NADPH),[1],not observed
